Where two headings read alike, the source gives them in different places. One block for each substance: values may come before it.
Tests used:
[1] = Plasma stability and formation of treprostinil, human plasma; type: in vitro ADME; settings: for Percent Remaining / Half-Life: 1 μM, 37° C.; for Formation of Treprostinil, Concentration: prodrug dosed at 1 μM
Procedure: (§1) Studies were carried out in mixed-gender human plasma male Sprague-Dawley rat plasma, and male Beagle dog plasma. All plasma was obtained from Bioreclamation and collected on K2EDTA. Plasma was adjusted to pH 7.4 prior to initiating the experiments. DMSO stocks were first prepared for the test articles. […] The vials were kept in a benchtop Thermomixer® for the duration of the experiment. […] Samples were stored at 4° C. until the end of the experiment. After the final time point was sampled, the plate was mixed and then centrifuged at 3000 rpm for 10 minutes.

[2] = Plasma stability and formation of treprostinil, rat plasma; type: in vitro ADME; settings: for Percent Remaining / Half-Life: 1 μM, 37° C.; for Formation of Treprostinil, Concentration: prodrug dosed at 1 μM
Procedure: as §1

[3] = Plasma stability and formation of treprostinil, dog plasma; type: in vitro ADME; settings: for Percent Remaining / Half-Life: 1 μM, 37° C.; for Formation of Treprostinil, Concentration: prodrug dosed at 1 μM
Procedure: as §1

[4] = Stability and formation of treprostinil in human cryopreserved hepatocytes
Procedure: (§2) Mixed-gender human cryopreserved hepatocytes, male Sprague-Dawley rat cryopreserved hepatocytes, and male Beagle dog cryopreserved hepatocytes were purchased from XenoTech. The hepatocytes were thawed and prepared according to the vendor's instructions, pooled into Krebs Henseleit buffer (KHB, pH 7.4), and kept on ice prior to the experiments. […] The final DMSO content in the incubation mixture was ≤0.1%. […] Aliquots of the test article were withdrawn (n=1) at 0, 15, 30, 60, and 120 minutes. […] Aliquots of 7-HC were withdrawn (n=1) at 0 and 15 minutes. The reaction was immediately terminated by adding two volumes of ice-cold acetonitrile (ACN) to the test article samples and three volumes of ACN containing internal standard to the positive control samples.

[5] = Stability and formation of treprostinil in rat cryopreserved hepatocytes
Procedure: as §2

[6] = Stability and formation of treprostinil in dog cryopreserved hepatocytes
Procedure: as §2

[7] = Stability and formation of treprostinil in simulated intestinal fluid; type: in vitro ADME; settings: for Percent Remaining / Half-Life: SIF pH 6.8, 1 μM, 37° C.; for Formation of Treprostinil, Concentration: SIF, prodrug dosed at 1 μM
[8] = molecular target: T1, prostaglandin I2 (PGI2) receptor (IP) (Homo sapiens, UniProt P43119); experiment: IP receptor cAMP assay (agonist mode); type: cell-based; settings: cAMP, cells overexpressing human IP
T1 construct: expressed in transfected cells; host or cells: CHO-K1
T1 sequence (P43119 whole entry): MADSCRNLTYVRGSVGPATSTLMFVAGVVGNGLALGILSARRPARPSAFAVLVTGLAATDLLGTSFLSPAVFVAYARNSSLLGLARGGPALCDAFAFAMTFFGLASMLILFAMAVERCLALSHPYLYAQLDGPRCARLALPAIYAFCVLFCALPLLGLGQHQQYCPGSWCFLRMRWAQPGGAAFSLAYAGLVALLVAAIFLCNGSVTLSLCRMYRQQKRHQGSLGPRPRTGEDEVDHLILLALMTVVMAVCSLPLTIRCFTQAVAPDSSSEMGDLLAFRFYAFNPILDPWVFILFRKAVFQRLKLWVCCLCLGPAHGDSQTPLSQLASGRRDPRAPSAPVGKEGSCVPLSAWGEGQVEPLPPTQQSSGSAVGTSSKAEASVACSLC

[9] = molecular target: T2, prostaglandin E2 (PGE2) receptor 2 (EP2) (Homo sapiens, UniProt P43116); experiment: EP2 receptor cAMP assay (agonist mode); type: cell-based; settings: cAMP, cells overexpressing human EP2
T2 construct: expressed in transfected cells; host or cells: HEK293T
T2 sequence (P43116 whole entry): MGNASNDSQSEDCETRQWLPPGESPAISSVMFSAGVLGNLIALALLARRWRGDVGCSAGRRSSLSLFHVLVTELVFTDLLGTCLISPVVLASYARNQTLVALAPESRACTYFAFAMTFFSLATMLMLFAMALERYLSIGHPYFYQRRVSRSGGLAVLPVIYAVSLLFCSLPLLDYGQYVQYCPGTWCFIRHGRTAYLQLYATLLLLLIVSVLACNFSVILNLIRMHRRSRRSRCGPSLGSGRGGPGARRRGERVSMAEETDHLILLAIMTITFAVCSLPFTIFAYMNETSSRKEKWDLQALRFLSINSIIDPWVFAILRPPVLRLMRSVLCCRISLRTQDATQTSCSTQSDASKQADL

[10] = molecular target: T3, prostaglandin D2 (PGD2) receptor 1 (DP1) (Homo sapiens, UniProt Q13258); experiment: DP1 receptor cAMP assay (agonist mode); type: cell-based; settings: for Activity, DP1 Relative to Tre: relative to treprostinil EC50 values, * partial agonists or ambiguous dose-response curves
T3 construct: expressed in transfected cells; host or cells: HEK293T
T3 sequence (Q13258 1-359): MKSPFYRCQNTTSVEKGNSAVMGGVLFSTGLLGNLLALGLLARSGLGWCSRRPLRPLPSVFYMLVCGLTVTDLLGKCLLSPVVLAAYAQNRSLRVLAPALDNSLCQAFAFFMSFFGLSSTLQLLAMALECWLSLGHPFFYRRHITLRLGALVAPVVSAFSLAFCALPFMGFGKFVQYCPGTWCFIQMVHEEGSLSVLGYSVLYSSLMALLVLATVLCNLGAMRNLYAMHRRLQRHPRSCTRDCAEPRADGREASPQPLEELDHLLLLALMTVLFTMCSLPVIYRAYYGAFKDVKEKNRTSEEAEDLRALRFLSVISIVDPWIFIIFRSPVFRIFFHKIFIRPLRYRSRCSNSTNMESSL

[11] = Hydrolysis of treprostinil prodrugs to treprostinil at pH 6, 7 and 8 and 40 C; type: physicochemical
Text: Tables 26, 27 and 28 present data for hydrolysis of selected treprostinil prodrugs at pH 6, 7 and 8, respectively, and 40 C.

[12] = microsomes
[13] = microsomes; remark: listed apart in the source

Substance: treprostinil dipropionate [Prodrug LXX]
Percent Remaining ([1]; 0 min): 100%
Formation of Treprostinil, Concentration ([1]; 0 min): 0 µM
Half-Life [1]: >2 h
Percent Remaining ([1]; 15 min): 92.4%
Formation of Treprostinil, Concentration ([1]; 15 min): 0 µM
Percent Remaining ([1]; 30 min): 102%
Formation of Treprostinil, Concentration ([1]; 30 min): 0 µM
Percent Remaining ([1]; 60 min): 93.3%
Percent Remaining ([1]; 120 min): 103%
Formation of Treprostinil, Concentration ([1]; 120 min): 0 µM
Formation of Treprostinil, Concentration [1]: 0 µM
Percent Remaining ([2]; 0 min): 100%
Formation of Treprostinil, Concentration ([2]; 0 min): 0 µM
Half-Life [2]: 1.7 h
Formation of Treprostinil, Concentration ([2]; 60 mm): 0.0331 µM
Percent Remaining ([2]; 15 min): 98.3%
Formation of Treprostinil, Concentration ([2]; 15 min): 0.00392 µM
Percent Remaining ([2]; 30 min): 80.3%
Formation of Treprostinil, Concentration ([2]; 30 min): 0.0101 µM
Percent Remaining ([2]; 60 min): 69.3%
Percent Remaining ([2]; 120 min): 45.0%
Formation of Treprostinil, Concentration ([2]; 120 min): 0.0768 µM
Percent Remaining ([3]; 0 min): 100%
Formation of Treprostinil, Concentration ([3]; 0 min): 0 µM
Half-Life [3]: >2 h
Percent Remaining ([3]; 15 min): 103%
Formation of Treprostinil, Concentration ([3]; 15 min): 0 µM
Percent Remaining ([3]; 30 min): 116%
Formation of Treprostinil, Concentration ([3]; 30 min): 0 µM
Percent Remaining ([3]; 60 min): 97.4%
Percent Remaining ([3]; 120 min): 91.4%
Formation of Treprostinil, Concentration ([3]; 120 min): 0 µM
Formation of Treprostinil, Concentration [3]: 0 µM
Treprostinil Concentration, 0 min [4]: 0.00542 µM
Treprostinil Concentration, 15 min [4]: 0.638 µM
Treprostinil Concentration, 30 min [4]: 0.556 µM
Treprostinil Concentration, 60 min [4]: 0.482 µM
Treprostinil Concentration, 120 min [4]: 0.413 µM
Treprostinil Concentration, 0 min [5]: 0 µM
Treprostinil Concentration, 15 min [5]: 0.606 µM
Treprostinil Concentration, 30 min [5]: 0.579 µM
Treprostinil Concentration, 60 min [5]: 0.484 µM
Treprostinil Concentration, 120 min [5]: 0.405 µM
Treprostinil Concentration, 0 min [6]: 0.0959 µM
Treprostinil Concentration, 15 min [6]: 0.736 µM
Treprostinil Concentration, 30 min [6]: 0.597 µM
Treprostinil Concentration, 60 min [6]: 0.511 µM
Treprostinil Concentration, 120 min [6]: 0.445 µM
CLint ([6]; hepatocytes): >0.0308 mL/min/mg protein
Half-Life ([6]; hepatocytes): <0.25 h
Percent Remaining ([7]; 0 min): 100%
Half-Life [7]: >2 h
Percent Remaining ([7]; 15 min): 97.2%
Percent Remaining ([7]; 30 min): 104%
Percent Remaining ([7]; 60 min): 93.6%
Percent Remaining ([7]; 120 min): 86.2%
Formation of Treprostinil, Concentration ([7]; 0 min): 0 µM
Formation of Treprostinil, Concentration ([7]; 15 min): 0 µM
Formation of Treprostinil, Concentration ([7]; 30 min): 0 µM
Formation of Treprostinil, Concentration ([7]; 60 min): 0.00415 µM
Formation of Treprostinil, Concentration ([7]; 120 min): 0.0720 µM
Activity at the IP receptor compared to treprostinil [8]: inactive
Activity at the EP2 receptor compared to treprostinil [9]: inactive
EC50 Fold Different from Treprostinil, DP1 Receptor ([10]; Table 20, agonist mode, NC = too inactive to realistically calculate, * partial agonists or odd dose-response curves): 410x*
Activity, DP1 Relative to Tre ([10]; Table 24, image character = too high to realistically calculate): 410x
Activity, DP1 Relative to Tre ([10]; Table 25): 410x
Activity at the DP1 receptor compared to treprostinil ([10]; cAMP, cells overexpressing human DP1): several hundred-fold less active
Hydrolysis of prodrug to treprostinil, % Area, t = 1 week ([11]; pH 6, 40 C): 0.00 % Area
Hydrolysis of prodrug to treprostinil, % Area, t = 2 weeks ([11]; pH 6, 40 C): 0.00 % Area
Hydrolysis of prodrug to treprostinil, % Area, t = 3 weeks ([11]; pH 6, 40 C): 0.00 % Area
Hydrolysis of prodrug to treprostinil, % Area, t = 1 week ([11]; pH 7, 40 C): 0.00 % Area
Hydrolysis of prodrug to treprostinil, % Area, t = 2 weeks ([11]; pH 7, 40 C): 0.00 % Area
Hydrolysis of prodrug to treprostinil, % Area, t = 3 weeks ([11]; pH 7, 40 C): 0.00 % Area
Hydrolysis of prodrug to treprostinil, % Area, t = 1 week ([11]; pH 8, 40 C): 0.00 % Area
Hydrolysis of prodrug to treprostinil, % Area, t = 2 weeks ([11]; pH 8, 40 C): 0.00 % Area
Hydrolysis of prodrug to treprostinil, % Area, t = 3 weeks ([11]; pH 8, 40 C): 0.00 % Area
Half-Life [12]: <0.167 h
Half-Life [13]: <0.167 h

Half-Life [1]: >2 h
Half-Life [2]: <0.25 h
Half-Life [3]: >2 h
Treprostinil Concentration, 0 min [4]: 0 µM
Treprostinil Concentration, 15 min [4]: 0.118 µM
Treprostinil Concentration, 30 min [4]: 0.211 µM
Treprostinil Concentration, 60 min [4]: 0.273 µM
Treprostinil Concentration, 120 min [4]: 0.259 µM
Treprostinil Concentration, 0 min [5]: 0 µM
Treprostinil Concentration, 15 min [5]: 0.422 µM
Treprostinil Concentration, 30 min [5]: 0.403 µM
Treprostinil Concentration, 60 min [5]: 0.347 µM
Treprostinil Concentration, 120 min [5]: 0.292 µM
Treprostinil Concentration, 0 min [6]: 0.00293 µM
Treprostinil Concentration, 15 min [6]: 0.501 µM
Treprostinil Concentration, 30 min [6]: 0.408 µM
Treprostinil Concentration, 60 min [6]: 0.348 µM
Treprostinil Concentration, 120 min [6]: 0.303 µM
Half-Life [7]: >2 h
Formation of Treprostinil, Concentration ([7]; 0 min): 0 µM
Formation of Treprostinil, Concentration ([7]; 15 min): 0 µM
Formation of Treprostinil, Concentration ([7]; 30 min): 0 µM
Formation of Treprostinil, Concentration ([7]; 60 min): 0 µM
Formation of Treprostinil, Concentration ([7]; 120 min): 0.0121 µM
Activity at the IP receptor compared to treprostinil [8]: inactive
Activity at the EP2 receptor compared to treprostinil [9]: inactive
Hydrolysis of prodrug to treprostinil, % Area, t = 1 week ([11]; pH 6, 40 C): 0.00 % Area
Hydrolysis of prodrug to treprostinil, % Area, t = 2 weeks ([11]; pH 6, 40 C): 0.00 % Area
Hydrolysis of prodrug to treprostinil, % Area, t = 3 weeks ([11]; pH 6, 40 C): 0.00 % Area
Hydrolysis of prodrug to treprostinil, % Area, t = 1 week ([11]; pH 7, 40 C): 0.00 % Area
Hydrolysis of prodrug to treprostinil, % Area, t = 2 weeks ([11]; pH 7, 40 C): 0.00 % Area
Hydrolysis of prodrug to treprostinil, % Area, t = 3 weeks ([11]; pH 7, 40 C): 0.00 % Area
Hydrolysis of prodrug to treprostinil, % Area, t = 1 week ([11]; pH 8, 40 C): 0.00 % Area
Hydrolysis of prodrug to treprostinil, % Area, t = 2 weeks ([11]; pH 8, 40 C): 0.00 % Area
Hydrolysis of prodrug to treprostinil, % Area, t = 3 weeks ([11]; pH 8, 40 C): 0.38 % Area
Substance: treprostinil dicarbonate [Prodrug LXXI]

Source: patent publication US11634443B2, “Treprostinil prodrugs” (United Therapeutics Corporation, priority 2019, dated 2023)
